Laboratory results reported in patent US8367716B2 (priority 2003, dated 2013).

Assays:
V. cholerae N16961 = assay: Crystal violet quantitative biofilm assay in glass test tubes; format: cell-based, Vibrio cholerae
S. aureus [1] = assay: Tube agglutination assay and light microscopy (cell-to-cell aggregation); format: cell-based, Staphylococcus aureus
Method: Tube agglutination assay and light microscopy. Colonies from a 18 h blood agar plate were inoculated into 1 ml PBS to make a 0.5 McFarland standard containing ˜5×10^8 cfu/ml (confirmed by plate count). A 5 μl aliquot from the 0.5 McFarland standard was then inoculated into 5 ml polystyrene tubes containing 1 ml TSB representing ˜10^5 cfu/ml (confirmed by plate count). These tubes were inoculated either with 50 μl c-di-GMP to give a 200 μM c-di-GMP final concentration representing a “treated” sample or inoculated with 50 μl 0.9% NaCl as a control and representing an “untreated” control. Cultures were incubated at 37° C. for 24 h statically. Following incubation, these cultures were examined macroscopically and microscopically (Zeiss Axioskop) for the presence or absence of visible cell-to-cell clumping.

CD-1 mice = assay: Lethality in mice after oral c-di-GMP; format: in vivo; details: 50 μL of 200 μM, orally, examined 24 h after treatment
Method: (§1) Safety and toxicity assays. For HeLa cell toxicity studies, various concentrations (0-, 25-, 50-, 100-, 200- and 400 μM) of c-di-GMP were tested in separate wells of chamber slides containing HeLa cells prepared as described above in complete media (in the absence of bacteria). HeLa cell morphology was examined microscopically after 12-, 24- and 48 h incubation. The potential lethality of c-di-GMP administered to mice was also examined. In these studies, adult female CD-1 mice and 5 day old infant mice were inoculated orally with 50 μL of 200 μM c-di-GMP and examined 24 h after c-di-GMP treatment.

[2] = 0.2 N NaOH, ~pH 13.5, 37° C. for 24 h; Ross et al.; cited from earlier work
S. aureus DK825 [3] = assay: Effect on 24 h pre-formed biofilms; format: cell-based, Staphylococcus aureus; details: 200 μM added to 24 h pre-formed biofilm, further 24 h
Method: Effect of c-di-GMP on S. aureus pre-formed biofilms. S. aureus DK825 was subcultured from glycerol stocks onto blood agar plate and incubated at 37° C. statically. A single colony was inoculated into 5 ml TSB broth (containing 0.25% glucose) and incubated at 37° C. overnight with shaking at 250 rpm until the culture reached OD660˜3.0. Following incubation the culture was diluted to 1:250 with fresh TSB broth and a 200 μl of the diluted culture was transferred into each well of microtitre plate and the plate containing wells with S. aureus cultures was incubated statically at 37° C. for 24 h. After 24 h, an appropriate volume of c-di-GMP was added to give a final concentration of 200 μM and represented the “treated” sample. As an “untreated” control, an identical volume of 0.9% NaCl was added to independent wells. The plates were then incubated statically at 37° C. for an additional 24 h. Following incubation the culture was discarded and microtitre plate was washed twice with 1X PBS. An equal volume (260 μl) of 1X PBS was added to each well for washing. The plates were then kept for drying on paper towel ˜30 min. A 260 μl of 0.1% crystal violet was added to each well to stain the cells in the biofilm and the plates were incubated at room temperature for 30 min. […] To quantitatively assay the amount of biofilm, the OD570 was measured by a spectrophotometer (SpectraMAX 250, Molecular Devices). […]

S. aureus [4] = assay: Biofilm formation on polystyrene microtitre plates (crystal violet, O.D.570); format: cell-based, Staphylococcus aureus
Method: Effect of c-di-GMP on S. aureus biofilm formation. S. aureus strains were subcultured from glycerol stocks onto blood agar plates and incubated at 37° C. for 18 h. A single colony was inoculated into 5 ml TSB broth with a sterilized loop and incubated at 37° C. for 18 h with shaking at 250 rpm and until the O.D.660 reached 3.0 as measured spectrophotometrically using a spectrophotometer (SpectraMAX 250, Molecular Devices). Following incubation, the culture was diluted 1:250 with fresh TSB and a 200 μl of the diluted culture was transferred into wells of a flat-bottom polystyrene microtitre plate (Evergreen Scientific). […] In these biofilm experiments, similar volumes of 0.9% NaCl was added to a set of different wells representing the “untreated” control samples. The microtitre plates were then incubated statically at 37° C. for 24 h or 48 h. Following incubation, the supernatant was carefully discarded and the wells washed twice with 260 μl PBS. The plate was then kept for drying on a paper towel for 30 min after which 260 μl 0.1% crystal violet was added to each well and the plates incubated at room temperature for 30 min. The crystal violet was discarded and plate washed gently with water, the wells allowed to dry for 30 min then 260 μl DMSO was added to each well and gently agitated for 1 h and the O.D.570 measured by using a spectrophotometer (SpectraMAX 250, Molecular Devices). The results of these biofilm assays were based on data obtained from at least three independent colonies tested in duplicate.

[5] = tested on: S. aureus Newbould 305 strain; assay: Mouse mastitis model of S. aureus infection; format: in vivo, Staphylococcus aureus
Method: A mouse mastitis model of S. aurreus infection using the S. aureus Newbould 305 strain (Brouillette et al., 2003, 2004a and 2004b) was used to show the effectiveness of treatment with c-di-GMP. Three mice per group and two glands per mouse were used for a total of six samples per treatment. 100 CFU (colony forming units) of S. aureus Newbould 305 strain were inoculated into each mammary gland. Five or 50 nanomoles of c-di-GMP was administered by injection twice into each mammary gland at 0 hr. (pre-mixed with the S. aureus inoculum in 100 μl volume, i.e., 50 or 500 μM concentration) and at 4 hr. post-infection (in 50 μl, i.e., 100 or 1000 μM). The mammary glands were harvested at 10 hrs. post-infection. Considering the volume of the mammary gland with milk to be about 250 μl, the final concentration of c-di-GMP in the mammary gland at each injection was estimated to be 20 μM or 200 μM.

HeLa cells = assay: HeLa cell toxicity (cell morphology); format: cell-based, human
Method: as §1

S. aureus DK825 [6] = assay: Coagulase production (bound or free); format: cell-based, Staphylococcus aureus

Q: Which “effect on biofilm formation” value (V. cholerae N16961; N16961 wildtype, 24 h static, LB, dose-dependent) does the source give for `Nc1nc2c(ncn2C2OC3COP(=O)(O)OC4C(COP(=O)(O)OC3C2O)OC(n2cnc3c(=O)[nH]c(N)nc32)C4O)c(=O)[nH]1` (stereo not drawn) [c-di-GMP, 3′,5′-cyclic diguanylic acid] here?
A: The value was “increase biofilm formation”.

Q: What about the “effect on biofilm formation” value (V. cholerae N16961; RocS mutant) of the same compound?
A: Its value is “increased biofilm forming activity”.

Q: What about the “cell-to-cell interactions and clumping (Gram stain, light microscopy)” value (S. aureus [1]; DK825, 200 μM) of the same compound?
A: The value was “dramatically less cell-to-cell interactions and clumping”.

Q: And the “visible cell aggregation (macroscopic)” value (S. aureus [1]; DK825, 200 μM, 24 h static)?
A: Its value is “no obvious visible cell aggregation or pellet”.

Q: And the “visible cell aggregation (macroscopic)” value (S. aureus [1]; bap mutant M556)?
A: The value was “inhibits cell aggregation”.

Q: What about the “cell-to-cell interactions and clumping (Gram stain, light microscopy)” value (S. aureus [1]; bovine mastitis strains V329, V299, V315) of the same compound?
A: The value was “less intercellular interactions and clumping”.

Q: What about the lethality (CD-1 mice) of the same compound?
A: The lethality was “no lethal effects were observed”.

Q: What about the “stability in relatively strong alkali (cellulose activating activity)” value [2] of the same compound?
A: Its value is “labile”.

Q: And the “reduction of further biofilm development” value (S. aureus DK825 [3])?
A: Its value is roughly 75%.

Q: And the “reduction of biofilm formation” value (S. aureus [4]; DK825, 20 μM, 24 h)?
A: Its value is roughly 50%.

Q: And the “reduction of biofilm formation” value (S. aureus [4]; DK825, 200 μM, 24 h)?
A: The value was roughly 65%.

Q: What about the “reduction of biofilm formation” value (S. aureus [4]; DK825, 400 μM, 24 h) of the same compound?
A: The value was roughly 85%.

Q: What about the “reduction of biofilm formation” value (S. aureus [4]; bovine strains V329, M556, V299, V315) of the same compound?
A: The value was 50-70%.

Q: What about the “reduction of cell-to-surface interactions and biofilm formation” value (S. aureus [4]; human and bovine isolates vs untreated controls) of the same compound?
A: The value was greater than 50%.

Q: And the “effect on CFU counts in the mammary gland” value ([5]; 5 or 50 nanomoles per injection)?
A: Its value is “significant dose-dependent suppressing effect”.

Q: What about the “inhibition of S. aureus infection of the mammary gland (CFU counts)” value ([5]; 50 nanomoles injected into mammary gland at 0 and 4 hr., harvest 10 hrs. post-infection) of the same compound?
A: The value was “at least 10 fold”.

Q: What about the “concentrations relatively noncytotoxic to HeLa cells” value (HeLa cells) of the same compound?
A: The value was less than 400 µM.

Q: And the “effect on HeLa cell morphology” value (HeLa cells; 0-, 25-, 50-, 100-, 200- and 400 μM, 12-, 24- and 48 h)?
A: Its value is “no obvious visible effect”.

Q: And the “changes in HeLa cell morphology” value (HeLa cells; 400 μM, 48 h exposure)?
A: The value was “morphological changes”.

Q: And the “changes in HeLa cell morphology” value (HeLa cells; up to 400 μM, 24 h exposure)?
A: The value was “did not cause any obvious changes in cell morphology”.

Q: And the “coagulase production treated vs untreated” value (S. aureus DK825 [6])?
A: Its value is “no difference”.
